The source made the active and inactive calls. How the calls were made is not given here.
Assays:
[1] = growth inhibition of apl2Δ yeast, dose response, selectivity assay for post-Golgi transport modulator project, S. cerevisiae, secondary screen, background strain comparison (AID 789); settings: S. cerevisiae background (wild-type parent) strain growth inhibition
[2] = system: S. cerevisiae apl2Δ mutant growth inhibition; test: as above

Compound | IC50 [1] | IC50 [2]
CC1CC(C)CN(CCOc2ccc(Cl)cc2Cl)C1 (stereo not drawn) | > 10 µM | > 10 µM (inactive)
O=C(NCc1ccc2c(c1)OCO2)c1ccc(-n2cnnn2)cc1 | > 10 µM | > 10 µM (inactive)
c1ccc(COc2ccc(CN3CCN(c4ccccn4)CC3)cc2)cc1 | > 10 µM | > 10 µM (inactive)
O=c1c2cccc3c2c(nn1CN1CCOCC1)-c1ccccc1-3 | > 10 µM | > 10 µM (inactive)
O=C(O)Cn1c(SCCOc2ccccc2F)nc2ccccc21 | > 10 µM | > 10 µM (inactive)
O=C(COc1ccc(Cl)cc1Cl)NCCCN1CCOCC1 | > 10 µM | > 10 µM (inactive)
O=C(NCC(=O)N(c1cccnc1)C(C(=O)NCc1ccco1)c1ccccc1)c1ccco1 (stereo not drawn) | > 10 µM | > 10 µM (inactive)
O=C1OCC(CO)(CO)N=C1NNc1ccc(Cl)c(Cl)c1 | 3.35 µM | 4.53 µM (inactive)
COc1ccc(/C=C2\SC(=S)N(NC(=O)c3csc4c3CCCC4)C2=O)cc1 | > 10 µM | > 10 µM (inactive)
Cc1c(Cl)c([N+](=O)[O-])nn1Cc1ccc(C(=O)N/N=C\c2cccc(Br)c2)o1 | > 10 µM | > 10 µM (inactive)
NC(=O)c1c(NC(=O)CN2C(=O)CCC2=O)sc2c1CCCCC2 | > 10 µM | > 10 µM (inactive)
CCN(CC)C(=O)C1CCN(Cc2ccc(Br)cc2)CC1 | > 10 µM | > 10 µM (inactive)
Cc1cccc(CS(=O)(=O)Cc2ccc(C(=O)NCCCN3CCCC3)o2)c1 | > 10 µM | > 10 µM (inactive)
O=C(NCC(c1cccnc1)N1CCN(c2ccccc2)CC1)c1ccc2c(c1)OCO2 (stereo not drawn) | > 10 µM | > 10 µM (inactive)
Cc1sc(NC(=O)c2ccco2)c(C(c2cccnc2)N2CCC(C)CC2)c1C (stereo not drawn) | 5.77 µM | 13.9 µM (inactive)
Clc1ccc(-c2n[nH]c3c2CCC3)c(Cl)c1 | 0.518 µM | 1.12 µM (inactive)
CCOC(=O)N1CCN(c2ccc(S(=O)(=O)N(Cc3ccccc3)Cc3ccccc3)cn2)CC1 | > 10 µM | > 10 µM (inactive)
Clc1ccc(-c2cnc(Oc3ccccc3)nc2)cc1 | > 10 µM | > 10 µM (inactive)
O=C(NC(C(=O)c1ccccc1)N1CCCCC1)c1ccccc1 (stereo not drawn) | > 10 µM | > 10 µM (inactive)
CCOC(=O)c1cccnc1SCc1cc(=O)n2ccccc2n1 | > 10 µM | > 10 µM (inactive)
CCOC(=O)C1CCN(Cc2cnc(Oc3ccc(Cl)cc3C)s2)CC1 | > 10 µM | > 10 µM (inactive)
CC1CCCN(CCOCCOc2ccc(Cl)cc2Br)C1 (stereo not drawn) | > 10 µM | 21.7 µM
CCOC(=O)C(NC(C)=O)(Nc1ccc(S(=O)(=O)Nc2onc(C)c2C)cc1)C(F)(F)F (stereo not drawn) | > 10 µM | > 10 µM (inactive)
Cc1cc(C)nc(NC(=O)CSc2nn(C)c(=S)s2)n1 | > 10 µM | > 10 µM (inactive)
COc1ccccc1N1CCN(C2CCN(C(=O)c3cc(OC)c(OC)c(OC)c3)CC2)CC1 | > 10 µM | > 10 µM (inactive)
c1coc(CNc2nc(N3CCCCC3)nc3ccccc23)c1 | > 10 µM | > 10 µM (inactive)
CCCCOc1ccc(-c2ncc(C(=O)O)c(C)n2)cc1 | > 10 µM | > 10 µM (inactive)
CCCc1cc(NCCCCO)n2c(nc3ccccc32)c1C#N | > 10 µM | > 10 µM (inactive)
O=C(NCCc1ccccc1)C1CCN(S(=O)(=O)N2CCCC2)CC1 | > 10 µM | > 10 µM (inactive)

Reference: PubChem BioAssay AID789 (SRMLSC, 2007)
